This is an account of results in patent publication US20130177904A1, “ARNT ISOFORM 3 AS A PREDICTOR OF AMINOFLAVONE RESPONSIVENESS IN CANCER CELLS” (UNIVERSITY OF MARYLAND, BALTIMORE, priority 2010, published 2013).

For test [1], the system named is K562. As to conditions: K562 leukemia cell line, NIH dose response data; cited from earlier work.
Test [2] deals with MDA-MB-231. As to the kind of experiment: MTS cell proliferation assay. The class given is cell-based. Conditions: Homo sapiens, 120 h; MDA-MB-231 (ER−), 5 days after treatment, estimated from graph FIG. 1; read-out: IC50 (50% Inhibitory Concentration). Here is the method: (§1) The CellTiter 96 Aqueous MTS Reagent (Promega, Cat. G5421 WI) was employed to measure the effects of AF on cell proliferation. Briefly, cells in 100 μl were seeded in 96-well plates (Nunc) at a density of 2,000 cells/well and allowed to attach overnight. AF was added the following day in final concentrations of 0.1 nM to 100 μM in replicas of 8. Proliferation was measured 5 days later by adding 20 μl MTS reagent to the plates and incubation at 37° C. for 2 hours. Viable cells converted the MTS reagent to a formazan product, which was measured 4 hours later at 490 nm using a Synergy HT Multi-Detection Microplate Reader, and KC4 software (Bio-Tek). Cell proliferation was compared to DMSO treated controls as a percentage, against the background growth at the time of AF treatment.
(§2) For IC50 (50% Inhibiting Concentration) determination, vehicle treated cells were deemed as 100% cell growth. Percent growth inhibition was calculated by dividing AF treated MTS values by MTS values of vehicle treated cells, subtracting background (media alone without cells) from both prior to calculations. […] The data as calculated is more representative of percent cell survival and therefore defined as Inhibitory Concentrations (IC50) rather than GI50 values. That said, they provide for a highly accurate means for comparing effects of AF. IC50 values were estimated directly from the graph (FIG. 1), though model fitting employing BiodataFit 1.02 (Chang Biosciences, found on the world wide web at changbioscience.com/stat/ec50ht.html) provided for highly similar results with model fitting correlations of 0.85 or above and generally small SEE values (standard error of the IC50 estimate).

In test [3] the test system is Hs578t. As to the kind of experiment: MTS cell proliferation assay. The class given is cell-based. As to conditions: Homo sapiens, Hs-578T, 120 h; Hs578t (ER−), 5 days after treatment, estimated from graph FIG. 1; read-out: IC50 (50% Inhibitory Concentration). Here is the method:
as §1, §2

Test [4] deals with MCF7. As to the kind of experiment: MTS cell proliferation assay. It counts as cell-based. Conditions: Homo sapiens, 120 h; MCF7 (ER+), 5 days after treatment, estimated from graph FIG. 1; read-out: IC50 (50% Inhibitory Concentration). The procedure:
as §1, §2

Test [5] deals with T47D. The test can be described thus: MTS cell proliferation assay. It counts as cell-based. As to conditions: Homo sapiens, 120 h; T47D (ER+), 5 days after treatment, estimated from graph FIG. 1; read-out: IC50 (50% Inhibitory Concentration). The procedure: as §1, §2
Test [6] concerns MDA-MB-468. As to the kind of experiment: MTS cell proliferation assay. The class given is cell-based. Conditions: Homo sapiens, 120 h; MDA-MB-468 (ER−), 5 days after treatment, estimated from graph FIG. 1; read-out: IC50 (50% Inhibitory Concentration). The procedure: as §1, §2
The subject of test [7] is A496. Conditions: A496 renal cell line, NIH dose response data; cited from earlier work.

Take `Cc1c(F)c(N)c2c(=O)cc(-c3ccc(N)c(F)c3)oc2c1F` [AF, 5-amino-2-(4-amino-3-fluorophenyl)-6,8-difluoro-7-methylchromen-4-one]: the AF sensitivity result in test [1] and in test [7] was “AF sensitive” throughout. The IC50 in test [2] was 70000 nM; in test [3], 20000 nM; in test [4], 70 nM; in test [5], 110 nM; in test [6], 4 nM.
